Measured values taken from patent US10753924B2, “Method for selecting patients responsive for cancer treatments” (Mitogro OÜ, priority 2016, dated 2020).
Marks after values point to notes of the source that are not given here.

What was measured:
[1] = tested on: permeabilized human breast cancer fibers; experiment: Citrate efflux from permeabilized fibers derived from human breast cancer clinical sample; type: cell-based
Protocol: In order to reach experiment targets, the sarcolemma and plasma membranes in skinned tumor fibers were completely permeabilized by saponin treatment keeping the mitochondrial membranes intact (both tumor and healthy tissue samples from the same patient were processed equally). Namely, skinned fibers were transferred into plastic vials with pre-cooled (on ice) Lahus-A (Table 8) containing 50 μg/ml saponin and incubated with mild stirring (at 40 rpm) for 30 min at 4° C. Permeabilized fibers were then washed in pre-cooled solution Lahus-B (Table 3) for 5 min under mild stirring; this washing procedure was performed three times to completely remove saponin and all soluble metabolites. The washed samples were placed into Lahus-B (Table 3) and kept in the same medium (at 4° C.) until use.
The experiments were carried out in an Oroboros oxygraph. Two parallel chambers on the same device were used. Reaction medium was Lahus-B (Table 3).
(§1) Saponine concetration suitable for viability of skinned breast cancer fibers was defined as 50 μg/ml. Malate, 2 mM, was present in all protocols in the reaction medium. BMS303141 was used to inhibit activity of ATP-citrate lyase to stop it from metabolizing free citrate that accumulates to the reaction medium. 1,2,3-benzenetricarboxylic acid was used to stop citrate efflux from mitochondria. Cytochorome c and CAT were injected to the reaction medium right at the end of the experiment to assess the quality of mitochondrial inner and outer membranes.
Duration of the induction phase: 1 hour.
Once the induction medium was ended, the reaction medium was transferred to 2.5 ml Eppendorf tube for centrifugation (14 000 rpm, 7 minutes). Fiber was removed from the reaction medium and weighted for calculations. The supernatant from the centrifugation was collected through syringe filter and stored on ice. Remaining debris was discarded as biological waste.
900 μl of each supernatant was used to enzymatically measure concentration of citrate as described before (Petrarulo et al, 1995).

[2] = tested on: permeabilized MCF-7 cells; experiment: Citrate efflux from permeabilized MCF-7 cells (induction phase in Oroboros oxygraph, enzymatic citrate measurement); type: cell-based, human; conditions: 4.56 × 10^6 cells/ml
Protocol: Stock culture of MCF-7 cells was obtained from American Type Culture Collection (ATCC® Number: HTB-22™). The cells were grown as adherent monolayers in big T75 flasks (Greiner Bio-One GmbH, Germany) in low glucose (1.0 g/L) DMEM with stable L-glutamine (PAA Laboratories GmbH, Austria) that was supplemented with 1 mM Na-pyruvate (Gibco®, REF 11360-039), 10% heat-inactivated fetal bovine serum (FBS), […] human recombinant insulin (Gibco) and antibiotics: penicillin (100 U/ml), streptomycin (100 μg/ml) and gentamicin at a final concentration of 50 μg/ml. MCF-7 cells were grown and maintained at 37° C. in a humidified incubator containing 5% CO2 in air. The cells were sub-cultured at 2-3 day intervals.
MCF-7 cells were harvested from 5 T75 flasks (72 h after their seeding at a subculturing ratio of 1/5) by means of accutase (a cell detachment agent) treatment.
After detachment, the cell were washed twice with Mitomed-B solution (see Table 2), supplemented with lmg/ml bovine serum albumin (BSA) and 3-5 μM leupeptin (protease inhibitor) with centrifugation (on a Heraus “Biofuge primo R” refrigerated centrifuge equipped with a swing-out rotor, 150×g for 7 min at 4° C.). After washing, the pellet was resuspended in 2.5 ml of Mitomed-B (supplemented with lmg/ml BSA and 3-5 μM leupeptin) and the cells were stored on melting ice.
The experiments were carried out in an Oroboros oxygraph. Two parallel chambers on the same device were used. Reaction medium was Lahus-B as described below (Table 3).
as §1, with “MCF-7 cells” for “skinned breast cancer fibers”, “30” for “50”, “ATP-citratelyase” for “ATP-citrate lyase”, “Saponine incubation time was 5 minutes. Cytochrome” for “Cytochorome”, “membranes. […]” for “membranes.”

## O=C(O)c1cccc(C(=O)O)c1C(=O)O [1,2,3-BTC, 1,2,3-benzenetricarboxylic acid]
[1]; permeabilized human breast cancer fibers, 1,2,3-BTC 1 mM
  effect on citrate accumulation in the reaction medium: blocked the citrate accumulation in the reaction medium
[1]; protocol 2: Glut/Mal, 1,2,3-BTC 1 mM, cancer fibers, footnote: result below detection limit (without inhibitor: 144.1, 172.1)
  citrate efflux: 41.7** ng citrate/mg × 60 min
[1]; protocol 4: Pyr/Mal, 1,2,3-BTC 1 mM, cancer fibers, footnote: result below detection limit (without inhibitor: 194.6)
  citrate efflux: 17.6** ng citrate/mg × 60 min
[1]; protocol 6: Palcar/Mal, 1,2,3-BTC 1 mM, cancer fibers (without inhibitor: 158.7)
  citrate efflux: 73.7 ng citrate/mg × 60 min
[2]; protocol 2: glutamate 5 mM + malate 2 mM, 1,2,3-BTC 1 mM, 1 hour induction (without inhibitor: 1428)
  citrate efflux: 1098 ng citrate per 10^6 cells per
[2]; protocol 4: pyruvate 0.05 mM + malate 2 mM, 1,2,3-BTC 1 mM, 1 hour induction (without inhibitor: 5564)
  citrate efflux: 1524 ng citrate per 10^6 cells per
[2]; protocol 6: PalCar 40 μM + malate 2 mM, 1,2,3-BTC 1 mM, 1 hour induction (without inhibitor: 3059)
  citrate efflux: 1156 ng citrate per 10^6 cells per
